Test results reported in EP0456257A1, “Silver halide color photographic material” (FUJI PHOTO FILM CO., LTD., priority 1990, dated 1991).

Experiment: Spectral absorption of yellow-colored coupler in methanol
Type: physicochemical
Experimental: The melting point of the compound was 269 to 272" C (decomposition). The structure of the compound was confirmed by H-NMR spectrum, mass spectrum and elementary analysis.
75 ml of methyl cellosolve and 26 ml of water were added to 10.1 g of Compound b (prepared as in Synthesis Example 1) and 10.7 g of sodium acetate. The diazonium solution was then added to the system with stirring under cooling with ice. After the dropwise addition was completed, the system was further stirred for 1 hour under ice-cooling and then for 2 hours at room temperature. The resulting crystal was filtered off. The crystal was then dispersed in 200 ml of methanol. A solution of 2.2 g of sodium hydroxide in 10 ml of water was added dropwise to the dispersion. The material was stirred for 3 hours. The system was neutralized with concentrated hydrochloric acid. The resulting crystal was washed with water and then with methanol, and then dried. The resulting crude crystal was purified with heat methanol in the same manner as in Synthesis Example 1 to obtain 14.8 g of Exemplary Coupler (YC-3). The melting point of the compound was 246 to 251 ° C (decomposition). The structure of the compound was confirmed by 'H-NMR spectrum, mass spectrum and elementary analysis.
13.0 g of Compound g prepared by the synthesis method as described in U.S. Patent 4,138,258 was dissolved in 40 ml of N,N-dimethylformamide. […]

- maximum absorption wavelength: 458.2 nm
- molecular extinction coefficient: 42,800
SMILES: CCCCCCCCC(CCCCCC)COCCCNC(=O)c1cc(OCCOc2ccc(N=Nc3c(C)c(C#N)c(=O)n(-c4ccccc4C(=O)O)c3O)cc2)c2ccccc2c1O (centres unmarked) [YC-30]
